# {VP} = (E)-vinylphosphonate; m = 2'-O-methyl; f = 2'-fluoro
# What was measured:
# CNNM4 mRNA [1] = assay: CNNM4 mRNA in liver of wild-type mice after single subcutaneous dose (Examples 12-14); assay type: in vivo, mouse; settings: wild-type C57BL/6 mice
# Procedure: (§1) Five- to seven-week old male C57BL/6 mice were treated with a single dose of 1 or 5 mg siRNA conjugate per kg body weight by subcutaneous injection. Control groups received a subcutaneous injection with the vehicle PBS. Two weeks after the treatment, liver samples were collected from all mice and snap frozen. RNA was extracted from liver samples and CNNM4 and Actin mRNA levels were determined by Taqman qRT-PCR. Values obtained for CNNM4 mRNA were normalized to values generated for the housekeeping gene Actin and related to mean of untreated sample (ut) set at 1-fold target gene expression. Each bar represents mean value from 6 animals +/-SD.
# Five- to seven-week old male C57BL/6 mice were treated with a single dose of 0.3 or 1 mg siRNA conjugate per kg body weight by subcutaneous injection. Control groups received a subcutaneous injection with the vehicle PBS. Two weeks after the treatment, liver samples were collected from all mice and snap frozen. RNA was extracted from liver samples and CNNM4 and Actin mRNA levels were determined by Taqman qRT-PCR. Values obtained for CNNM4 mRNA were normalized to values generated for the housekeeping gene Actin and related to mean of untreated sample (ut) set at 1-fold target gene expression. Each bar represents mean value from 6 animals +/-SD.
# as §1, with “1” for “1 or 5”, “Five” for “Two”, “PBS treated cohort (PBS)” for “untreated sample (ut)”
# CNNM4 mRNA [2] = assay: CNNM4 mRNA in liver of DIO-NASH mice (Example 24); assay type: in vivo, mouse; settings: 1 mg/kg or 5 mg/kg s.c. at 4, 8 and 12 weeks, liver 4 weeks after last treatment, FIG. 30
# Procedure: 5-week old C57BL/6 male mice were maintained on a DIO-NASH diet for about 32 weeks and randomized based on pre-liver biopsy fibrosis and steatosis score. Only animals with fibrosis score of ≥ 1 and steatosis score of ≥ 2 were included in the study. Animals were then maintained on DIO-NASH diet for another 16 weeks. At the 4 week, 8 week, and 12 week time points after the pre liver biopsy mice were treated with 1 mg/kg or 5 mg/kg EU422, respectively or with the vehicle PBS by subcutaneous injection. 4 weeks after the last treatment, liver samples were collected from all mice and snap frozen. RNA was extracted from liver samples and CNNM4 and HPRT mRNA levels were determined by Taqman qRT-PCR. Values obtained for CNNM4 mRNA were normalized to values generated for the house keeping gene HPRT and related to mean of untreated sample (ut) set at 1-fold target gene expression. Each bar represents mean value from 15 animals +/-SD.
substance,measurement,setting,value
"EU422: CNNM4 siRNA conjugate, duplex EU422A/EU422B; consists of SEQ ID NO: 461 and SEQ ID NO: 462 (chain 1 UGACAAAAGACACAAGAGU; chain 2 ACUCUUGUGUCUUUUGUCA; chain 1: sugars from the 5' end mfmfmfmfmfmfmfmfmfm, 5' {VP}, backbone not given here; chain 2: sugars from the 5' end m6 f3 m10, backbone not given here; undefined (ps2) end linkages, 5' conjugate ST23/ST41 on second strand, further chemistry not fully specified)",CNNM4 mRNA levels in the liver,"CNNM4 mRNA [1]; five weeks after single dose of 1 mg/kg s.c., FIG. 20",reduction of CNNM4 mRNA levels
same,CNNM4 mRNA levels in the liver,"CNNM4 mRNA [1]; two weeks after single dose of 0.3 or 1 mg/kg s.c., FIG. 19",reduction of CNNM4 mRNA levels
same,CNNM4 mRNA levels in the liver,CNNM4 mRNA [2],dose dependent reduction of CNNM4 mRNA levels

# — US20230265438A1, “NUCLEIC ACIDS FOR INHIBITING EXPRESSION OF CNNM4 IN A CELL” (ASOCIACIÓN CENTRO DE INVESTIGACIÓN COOPERATIVA EN …, priority 2020, published 2023)
